Measured values: ChEMBL document CHEMBL1144125, “Excavatolides U-Z, new briarane diterpenes from the gorgonian briareum excavatum” (1999)
Converted amounts (≈) assume the structure as drawn.

What was measured:
Format in all cases: functional
Conditions in all cases: read-out: ED50 (the source's name)
A549 = assay: Cytotoxicity against human A549 cells
P388 = assay: Cytotoxicity against mouse P388 cells
KB = assay: Cytotoxicity against human KB cells
HT-29 = assay: Cytotoxicity against human HT-29 cells

Row | Structure (SMILES) | EC50 (A549) [µg/mL] | EC50 (P388) [µg/mL] | EC50 (KB) [µg/mL] | EC50 (HT-29) [µg/mL]
1 | CCC(=O)O[C@H]1C[C@H](OC(C)=O)[C@@]2(C)[C@H]([C@H]1C)[C@@H](O)[C@]13O[C@]1(C)C(=O)O[C@H]3/C=C(/C)CC[C@H]2OC(C)=O [EXCAVATOLIDE W] | > 50 | 19.4 (≈ 37.1 µM) | > 50 | > 50
2 | CCCC(=O)O[C@@H]1C=C[C@]2(C)[C@H](OC(C)=O)C[C@@H](OC(C)=O)/C(C)=C\[C@@H]3OC(=O)[C@@]4(C)O[C@]34[C@H](OC(C)=O)[C@H]2[C@@]1(C)O | > 50 | > 50 | > 50 | > 50
3 | CCCC(=O)O[C@H]1C/C(C)=C\[C@@H]2OC(=O)[C@@]3(C)O[C@]23[C@H](OC(C)=O)[C@H]2[C@@H](C)[C@@H](OC(=O)CC)C[C@H](OC(C)=O)[C@]2(C)[C@@H]1OC(C)=O [EXCAVATOLIDE U] | > 50 | > 50 | > 50 | > 50
4 | CCC(=O)O[C@@H]1C[C@@H](OC(C)=O)[C@@]2(C)C=C[C@@H](OC(C)=O)[C@](C)(O)[C@@H]2[C@@H](OC(C)=O)[C@]23O[C@]2(C)C(=O)O[C@H]3/C=C\1C | > 50 | 9.5 (≈ 16.4 µM) | > 50 | 15.1 (≈ 26.1 µM)
5 | CCC(=O)O[C@H]1C[C@H](OC(C)=O)[C@@]2(C)[C@H]([C@H]1C)[C@@H](OC(C)=O)[C@]13O[C@]1(C)C(=O)O[C@H]3/C=C(/C)C[C@H](OC(C)=O)[C@H]2OC(C)=O [EXCAVATOLIDE V] | 19.1 (≈ 30.7 µM) | 3.9 (≈ 6.26 µM) | 7 (≈ 11.2 µM) | 20.4 (≈ 32.8 µM)
